# According to patent publication US7094754B2, “Anti-aging and wound healing compounds” (Kimberly-Clark Worldwide, Inc., priority 2001, dated 2006):
# Columns and labels:
# [1] = system: normal human epidermal keratinocytes (Clonetics, CC-2503); assay: Keratinocyte proliferation assay; assay type: cell-based; details: 48 hours
# Protocol: The proliferative response of these human skin keratinocytes to the 19mer peptide (SEQ ID NO:11) was measured in a 96-well assay system using keratinocyte basal medium (KBM, Clonetics, catalog number CC-3103) as a control. […] The plates were incubated for 24 hours at 37° C. in a humidified 5% CO2 atmosphere. […] In addition, 100 μl of vehicle KBM was added to 10 wells as control. The plate was incubated for 48 hours at 37° C. in a humidified, 5% CO2 atmosphere. After incubation, 20 μl of Cell Titer 96 Aqueous One Solution was added to all wells. The plate was swirled gently and placed back in the incubator for 3 hours. The spectrophotometric absorbance of each well was read at 490 nm. Results were analyzed statistically using one-way ANOVA.
# [2] = system: wounds in C57BL6/KsJ db/db mice; assay: Wound healing in db/db diabetic mice; assay type: in vivo
# Excerpt: Wounds were created in C57BL6/KsJ db/db mice with a 4 mm biopsy punch. The mice were obtained from The Jackson Laboratories and were aged 3-7 months before the onset of the wounding protocol. All mice were anesthetized prior to wounding. Two wounds were introduced onto the upper back of each animal by pulling the skin away from underlying structures and pushing the punch through the isolated skin. Typically, wounds were created to an average depth of 1.7 mm, with a range of 1.3 to 2.2 mm. No muscle involvement occurred during the course of wounding.
# Each day the wounds were digitally photographed and wound areas were determined by computer integration of the photographs. All wound treatments and the subsequent data analyses were performed in a blind manner (see e.g., Brown et al., 1994). Wound area at the time of wounding (day 0) is arbitrarily set to a relative value of 1 for all wounds; such that subsequent wound areas are converted to relative wound areas by dividing the wound area at day n by the wound area at day zero.
# [3] = system: neutrophils isolated from human blood; assay: Neutrophil migration assay (transwell); assay type: cell-based; details: HSA 0.4%
# Protocol: Peptides were synthesized and purified by the Microchemical Facility at Emory University or by SigmaGenesis. All peptides were analyzed by mass spectrometry after HPLC to assess purity. Approximately 0.5–2.0 milligrams of peptide were used to make fresh stock solutions (5 mg/mL in HBSS/HSA) for each migration assay. The peptide stock solutions were used to make more dilute solutions (1 mg/mL, 100 μg/mL, 10 μg/mL, 1 μg/mL, 100 ng/mL, and 10 ng/mL) in HBSS/HSA for the assays.
# Neutrophils were isolated from human blood (collected in Vacutainerm tubes containing EDTA) by layering the blood/EDTA mixture (about 20 mL) on top of two layers of Histopaque™ 1119 (bottom layer, 18 mL) and 1077 (top layer, 7 mL) in 50 mL Falcon tubes. The tubes were centrifuged at 1800 rpm for 30 minutes (no brake). Four layers appeared in the tubes after the spin (from top to bottom layers): plasma, 1077, 1119, and red blood cells. The buffy coat between the plasma and 1077 layers contained lymphocytes, monocytes, and some platelets. The plasma layer, the buffy coat, and most of the 1077 layer was removed and discarded. The 1119 layer that contained the neutrophils was removed and was placed into a clean 50 mL tube. Dulbecco's Phosphate Buffered Saline (DPBS) was added to bring the volume to 50 mL. The cells were centrifuged for 15 minutes at 2100 rpm. The cells were resuspended in 10 mL of DPBS, transferred to 15 mL tubes, and centrifuged again for 10 minutes at 2000 rpm. This process was repeated to wash the cells a second time. After the supernatant was removed, the red blood cells were lysed by adding 6 mL of cold sterile water to each 15 mL of supernatant. Cells were mixed in the water for only 30 seconds. Six mL of cold 2% sterile saline was then added. Cells were centrifuged again for 10 minutes at 2000 rpm. The red supernatant (containing hemoglobin from red blood cells) was removed. This process of red blood cell lysis was repeated two more times to remove all of the red blood cells. After most of the red blood cells were removed, neutrophils were resuspended in 10 mL of HBSS/HSA for counting with trypan blue.
# A neutrophil migration assay was performed in duplicate using a 24-well transwell plate (3 μm pore size for membrane). Transwell membranes were pre-moistened with 20–40 μL of HBSS/HSA (0.04–0.4%). Chemotactic solutions (500 μL) were added to the bottom of each well. […] Transwells were then placed into the chemotactic solutions. The plate was placed into the incubator (37° C., 5% CO2) for one hour. Cells that migrated through the membrane were counted using trypan blue.
# In the neutrophil migration experiments, neutrophils that were isolated were approximately 95% viable. Neutrophils were resuspended in HBSS/0.4%HSA for this experiment. IL-8 (10 nM in the HBSS/0.4%HSA buffer) was used as a positive control for neutrophil migration.
# [4] = Viability assay (MTT) in EpiDerm skin model; assay type: cell-based; details: human, EpiDerm skin model (MatTek), relative to PBS control, average over 500 μM and 2 mM, read-out: total average viability
# Excerpt: FIG. 16 provides a bar graph showing the percent living cells, relative to a positive control, in a skin model after treatment with two concentrations of peptide. The first sample, treated with phosphate buffered saline (PBS), is the positive control used to establish the cell count representing 100% viability. The second sample is a negative control where cells were exposed to 1% Triton-X100, showing that the assay can detect cell death. […] Data shown represent the average of three tests.
# The sample containers were transferred to 6 well plates that contained fresh media. All peptides were dissolved in PBS at a final concentration of 10 mM, and 100 μL each peptide solution was pipetted onto the surface of the Epiderm sample container. Incubation was continued for 12 hours at 37° C., 5% CO2. After the incubation period, the sample containers were washed three times with PBS and the sample containers were transferred to a 24 well plate that contained 300 μL of MTT assay media per well (MTT concentration was 1 mg/mL). The colorimetric assay was allowed to develop for three hours (incubation at 37° C., 5% CO2). Sample containers were then transferred to a 24 well culture plate that contained 2 mL of isopropanol per well. Extraction of the colored precipitate occurred over a period of four hours at room temperature. Absorbance readings were taken at 570 nm and 650 nm for each sample. The percent viability of each sample relative to a PBS control was calculated as: 100×(OD570^sam−OD650^sam)/(OD570^con−OD650^con) (6) Routinely, the peptide sample was assayed in triplicate. Results The sequence of matrix metalloproteinase-2 (SEQ ID NO:14) is provided below to facilitate definition of the various domains and regions in matrix metalloproteinases.
smiles,measurement,setting,value
CC(C)[C@H](NC(=O)[C@H](CC(=O)O)NC(=O)[C@@H]1CCCN1C(=O)[C@H](CC(N)=O)NC(=O)CNC(=O)[C@H](CS)NC(=O)[C@H](CCCNC(=N)N)NC(=O)[C@@H]1CCCN1)C(=O)N[C@@H](C)C(=O)N[C@@H](CC(N)=O)C(=O)N[C@@H](Cc1ccc(O)cc1)C(=O)N[C@@H](CC(N)=O)C(=O)N[C@@H](Cc1ccccc1)C(=O)N[C@@H](Cc1ccccc1)C(=O)N1CCC[C@H]1C(=O)N[C@@H](CCCNC(=N)N)C(=O)N[C@@H](CCCCN)C(=O)N1CCC[C@H]1C(=O)N[C@@H](CCCCN)C(=O)O [19-mer],keratinocyte growth (OD 490 nm) versus control,[1]; 1×10^−4 M,even greater cell growth
same,keratinocyte growth (OD 490 nm) versus control,[1]; 1×10^−5 M,significantly greater cell density
same,keratinocyte growth (OD 490 nm) versus control,[1]; 1×10^−6 M,only a small amount of cell proliferation
same,time to full wound closure (average),"[2]; single dose 5 μL of 20 μg/mL at time of wounding, saline control 14 days",9 days post wounding
same,start of wound contraction process,"[2]; single dose 5 μL of 20 μg/mL, saline control day 8",5 days
same,Percent Neutrophil Migration exp.1,[3]; 1 μg/mL,32%
same,Percent Neutrophil Migration exp.1,[3]; 10 μg/mL,22%
same,Percent Neutrophil Migration exp.1,[3]; 100 μg/mL,29%
same,Percent Neutrophil Migration exp.1,"[3]; 1 mg/mL, one hour",23%
same,viability at 12 h,[4],97.6%
